Data reported in ChEMBL document CHEMBL3044631, “Synthesis of 2-[4,5-dimethyl-1-(phenylamino)-1H-imidazol-2-ylthio]-N-(thiazole-2-yl)acetamide derivatives and their anticancer activities” (2013).

Experiments:
Assay type in all cases: functional
HCC 2998 = assay: Anticancer activity against Homo sapiens (human) HCC2998 cells after 48 hr by SRB assay; settings: HCC 2998, 48 h
NCI-H226 = assay: Anticancer activity against Homo sapiens (human) NCI-H226 cells after 48 hr by SRB assay; settings: NCI-H226, 48 h
HOP-92 = assay: Anticancer activity against Homo sapiens (human) HOP92 cells after 48 hr by SRB assay; settings: HOP-92, 48 h; for CC50: read-out: LC50 (the source's name)
SR = assay: Anticancer activity against Homo sapiens (human) SR cells after 48 hr by SRB assay; settings: for CC50: read-out: LC50 (the source's name)
RPMI-8226 = assay: Anticancer activity against Homo sapiens (human) RPMI8226 cells after 48 hr by SRB assay; settings: RPMI-8226, 48 h; for CC50: read-out: LC50 (the source's name)
HL-60(TB) = assay: Anticancer activity against Homo sapiens (human) HL-60(TB) cells after 48 hr by SRB assay; settings: HL-60, 48 h; for CC50: read-out: LC50 (the source's name)
CCRF-CEM [1] = assay: Anticancer activity against Homo sapiens (human) CCRF-CEM cells after 48 hr by SRB assay
MCF7 = assay: Anticancer activity against Homo sapiens (human) MCF7 cells after 48 hr by SRB assay; settings: MCF7, 48 h; for CC50: read-out: LC50 (the source's name)
OVCAR-5 = assay: Anticancer activity against Homo sapiens (human) OVCAR5 cells after 48 hr by SRB assay; settings: OVCAR-5, 48 h
SK-MEL-28 = assay: Anticancer activity against Homo sapiens (human) SK-MEL-28 cells after 48 hr by SRB assay; settings: SK-MEL-28, 48 h
PC-3 = assay: Anticancer activity against Homo sapiens (human) PC3 cells after 48 hr by SRB assay; settings: PC-3, 48 h
RXF 393 = assay: Anticancer activity against Homo sapiens (human) RXF393 cells after 48 hr by SRB assay; settings: RXF 393, 48 h
SN12C = assay: Anticancer activity against Homo sapiens (human) SN12C cells after 48 hr by SRB assay
CCRF-CEM [2] = assay: Anticancer activity against Homo sapiens (human) CCRF-CEM cells assessed as cell growth promotion at 10 uM after 48 hr by SRB assay

`Cc1nc(SCC(=O)Nc2nc(-c3ccc(Cl)cc3)cs2)n(Nc2ccccc2)c1C` was tested, and the GI50 (HCC 2998) was 10.6 µM, the LC50 (HCC 2998) was 82.6 µM and the TGI (HCC 2998) was 29.5 µM. It also gave a GI50 (NCI-H226) of 3.37 µM, an LC50 (NCI-H226) of 93.9 µM and a TGI (NCI-H226) of 18.8 µM. The GI50 (HOP-92) was 1.61 µM, the TGI (HOP-92) was 6.89 µM and the CC50 (HOP-92) was 38.9 µM. The GI50 (SR) was 3.81 µM, the TGI (SR) was greater than 100 µM and the CC50 (SR) was greater than 100 µM. It also gave a GI50 (RPMI-8226) of 3.55 µM, a TGI (RPMI-8226) greater than 100 µM and a CC50 (RPMI-8226) greater than 100 µM. For the same compound, the GI50 (HL-60(TB)) was 2.99 µM, the TGI (HL-60(TB)) was greater than 100 µM and the CC50 (HL-60(TB)) was greater than 100 µM. It also gave a GI50 (CCRF-CEM [1]) of 5.49 µM, an LC50 (concentration killing 50% of cells) (CCRF-CEM [1]) greater than 100 µM and a TGI (CCRF-CEM [1]) greater than 100 µM. It also gave a GI50 (MCF7) of 2.94 µM, a TGI (MCF7) of 11.4 µM and a CC50 (MCF7) of 52.2 µM. It also gave a GI50 (OVCAR-5) of 2.65 µM, an LC50 (OVCAR-5) of 54.2 µM and a TGI (OVCAR-5) of 13.5 µM. It also gave a GI50 (SK-MEL-28) of 10.1 µM, an LC50 (SK-MEL-28) of 59.7 µM and a TGI (SK-MEL-28) of 24.6 µM. It also gave a GI50 (PC-3) of 2.34 µM, an LC50 (concentration killing 50% of cells) (PC-3) of 38.4 µM and a TGI (PC-3) of 11 µM. For the same compound, the GI50 (RXF 393) was 2.97 µM, the LC50 (50% lethal concentration) (RXF 393) was 26.8 µM and the TGI (RXF 393) was 7.33 µM. It also gave a GI50 (SN12C) of 2.38 µM, an LC50 (concentration killing 50% of cells) (SN12C) of 35.8 µM and a TGI (SN12C) of 10.1 µM.

In the case of `COc1ccc(Nn2c(SCC(=O)Nc3nccs3)nc(C)c2C)cc1`, the Activity (CCRF-CEM [2]) is reported as 100.87%.

Compound `Cc1nc(SCC(=O)Nc2nccs2)n(Nc2ccccc2)c1C` has an Activity (CCRF-CEM [2]) of 102.19%.

For `COc1ccc(Nn2c(SCC(=O)Nc3nc(-c4ccc(Cl)cc4)cs3)nc(C)c2C)cc1`, the GI50 (HCC 2998) was 3.07 µM, the LC50 (HCC 2998) was greater than 100 µM and the TGI (HCC 2998) was 9.91 µM. For the same compound, the GI50 (NCI-H226) was 3.26 µM, the LC50 (NCI-H226) was greater than 100 µM and the TGI (NCI-H226) was greater than 100 µM. It also gave a GI50 (HOP-92) of 2.42 µM, a TGI (HOP-92) of 7.8 µM and a CC50 (HOP-92) greater than 100 µM. The GI50 (SR) was 7.02 µM, the TGI (SR) was greater than 100 µM and the CC50 (SR) was greater than 100 µM. It also gave a GI50 (RPMI-8226) of 5.8 µM, a TGI (RPMI-8226) greater than 100 µM and a CC50 (RPMI-8226) greater than 100 µM. For the same compound, the GI50 (HL-60(TB)) was greater than 100 µM, the TGI (HL-60(TB)) was 59.1 µM and the CC50 (HL-60(TB)) was greater than 100 µM. The GI50 (CCRF-CEM [1]) was 3.82 µM, the LC50 (concentration killing 50% of cells) (CCRF-CEM [1]) was greater than 100 µM and the TGI (CCRF-CEM [1]) was greater than 100 µM. For the same compound, the GI50 (MCF7) was 3.36 µM, the TGI (MCF7) was 25.5 µM and the CC50 (MCF7) was greater than 100 µM. For the same compound, the GI50 (OVCAR-5) was greater than 100 µM, the LC50 (OVCAR-5) was greater than 100 µM and the TGI (OVCAR-5) was greater than 100 µM. It also gave a GI50 (SK-MEL-28) of 18 µM, an LC50 (SK-MEL-28) greater than 100 µM and a TGI (SK-MEL-28) greater than 100 µM. For the same compound, the GI50 (PC-3) was 2.65 µM, the LC50 (concentration killing 50% of cells) (PC-3) was greater than 100 µM and the TGI (PC-3) was greater than 100 µM. For the same compound, the GI50 (RXF 393) was 3.53 µM, the LC50 (50% lethal concentration) (RXF 393) was greater than 100 µM and the TGI (RXF 393) was 9.64 µM. The GI50 (SN12C) was 2.3 µM, the LC50 (concentration killing 50% of cells) (SN12C) was greater than 100 µM and the TGI (SN12C) was 7.52 µM.

`Cc1ccc(Nn2c(SCC(=O)Nc3nc(-c4ccccc4)cs3)nc(C)c2C)cc1` gave a GI50 (HL-60(TB)) of 4.64 µM, a TGI (HL-60(TB)) of 39.1 µM and a CC50 (HL-60(TB)) greater than 100 µM. The Activity (CCRF-CEM [2]) was 57.71%, the GI50 (OVCAR-5) was 17.2 µM and the LC50 (OVCAR-5) was greater than 100 µM. It also gave a TGI (OVCAR-5) greater than 100 µM, a GI50 (SN12C) of 3.2 µM and an LC50 (concentration killing 50% of cells) (SN12C) of 63 µM. For the same compound, the TGI (SN12C) was 14.2 µM.

For `Cc1nc(SCC(=O)Nc2nccs2)n(Nc2ccc(Cl)cc2)c1C`, the Activity (CCRF-CEM [2]) was 99.59%.

Compound `CCOC(=O)c1csc(NC(=O)CSc2nc(C)c(C)n2Nc2ccc(C)cc2)n1` has an Activity (CCRF-CEM [2]) of 24.68%.
